Read-outs that look alike come from different tables or passages of the source.
Key:
[1] = tested on: maximal electroshock seizure (generalized tonic-clonic seizures); test: Maximal Electroshock Seizure; assay type: in vivo, mice; conditions: i.p.; for protection in the MES test in mice at 100 mg/kg (in words) / MES protection, animals protected/animals tested at 0.5 h: mice; for MES protection, animals protected/animals tested at 0.5 h: 100 mg/kg (stated for 19 and 20)
[2] = target: T1, human Nav1.2 (Homo sapiens, UniProt Q99250); assay type: cell-based
T1 sequence (Q99250 whole entry): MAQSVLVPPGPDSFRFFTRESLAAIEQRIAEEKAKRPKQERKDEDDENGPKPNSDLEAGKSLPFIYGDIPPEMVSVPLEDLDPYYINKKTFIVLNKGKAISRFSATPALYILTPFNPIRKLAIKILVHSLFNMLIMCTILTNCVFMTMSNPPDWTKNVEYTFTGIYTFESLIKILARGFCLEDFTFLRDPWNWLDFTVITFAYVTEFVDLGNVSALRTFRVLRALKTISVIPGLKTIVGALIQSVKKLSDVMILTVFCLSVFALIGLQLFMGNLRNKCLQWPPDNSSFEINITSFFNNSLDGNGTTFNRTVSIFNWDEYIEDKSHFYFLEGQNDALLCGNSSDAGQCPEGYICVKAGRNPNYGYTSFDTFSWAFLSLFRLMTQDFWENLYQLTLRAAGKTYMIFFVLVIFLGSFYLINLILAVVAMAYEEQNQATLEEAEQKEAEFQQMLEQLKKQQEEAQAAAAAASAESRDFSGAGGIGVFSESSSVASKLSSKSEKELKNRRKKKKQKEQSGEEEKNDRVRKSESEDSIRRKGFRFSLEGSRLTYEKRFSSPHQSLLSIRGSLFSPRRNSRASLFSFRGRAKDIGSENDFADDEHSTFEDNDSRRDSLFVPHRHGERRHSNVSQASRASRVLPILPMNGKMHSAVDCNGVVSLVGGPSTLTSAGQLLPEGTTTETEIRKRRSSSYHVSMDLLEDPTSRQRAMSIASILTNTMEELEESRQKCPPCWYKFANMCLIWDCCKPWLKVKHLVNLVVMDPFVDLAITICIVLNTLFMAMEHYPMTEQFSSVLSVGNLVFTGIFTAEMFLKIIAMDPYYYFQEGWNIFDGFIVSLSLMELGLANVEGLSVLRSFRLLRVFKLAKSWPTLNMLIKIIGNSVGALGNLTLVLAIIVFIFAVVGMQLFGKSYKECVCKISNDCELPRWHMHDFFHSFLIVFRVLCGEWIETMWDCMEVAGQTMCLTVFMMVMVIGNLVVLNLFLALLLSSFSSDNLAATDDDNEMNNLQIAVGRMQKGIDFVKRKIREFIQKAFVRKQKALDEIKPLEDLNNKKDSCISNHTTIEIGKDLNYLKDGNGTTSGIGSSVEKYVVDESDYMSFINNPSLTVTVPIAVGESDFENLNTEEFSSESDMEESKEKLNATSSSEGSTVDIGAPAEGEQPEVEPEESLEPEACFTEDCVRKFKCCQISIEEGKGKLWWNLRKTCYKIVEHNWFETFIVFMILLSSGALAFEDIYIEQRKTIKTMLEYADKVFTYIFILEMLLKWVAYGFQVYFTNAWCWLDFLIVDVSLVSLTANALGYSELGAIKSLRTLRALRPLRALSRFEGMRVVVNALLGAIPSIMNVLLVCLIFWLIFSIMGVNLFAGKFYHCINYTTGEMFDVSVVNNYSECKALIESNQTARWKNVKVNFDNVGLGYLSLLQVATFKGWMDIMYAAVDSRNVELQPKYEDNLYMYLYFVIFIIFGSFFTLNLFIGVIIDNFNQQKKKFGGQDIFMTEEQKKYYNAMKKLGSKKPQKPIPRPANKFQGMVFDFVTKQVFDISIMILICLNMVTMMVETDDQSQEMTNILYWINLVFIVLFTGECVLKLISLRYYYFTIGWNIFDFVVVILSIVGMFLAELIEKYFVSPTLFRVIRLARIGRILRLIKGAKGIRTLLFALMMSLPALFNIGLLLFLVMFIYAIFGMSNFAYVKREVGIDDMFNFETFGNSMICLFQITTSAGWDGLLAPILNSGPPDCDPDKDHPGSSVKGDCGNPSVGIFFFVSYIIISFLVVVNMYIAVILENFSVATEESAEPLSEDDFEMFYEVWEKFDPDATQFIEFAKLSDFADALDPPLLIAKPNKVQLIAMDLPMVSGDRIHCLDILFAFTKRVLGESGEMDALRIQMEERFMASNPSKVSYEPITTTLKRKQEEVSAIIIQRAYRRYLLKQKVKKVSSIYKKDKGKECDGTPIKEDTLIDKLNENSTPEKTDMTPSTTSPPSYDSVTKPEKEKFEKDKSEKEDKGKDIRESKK

[3] = tested on: mice; test: Acute toxicity, minimal motor impairment; assay type: in vivo; conditions: i.p.
[4] = tested on: maximal electroshock seizure (generalized tonic-clonic seizures); test: MES test, oral administration to rats; assay type: in vivo; conditions: 30 mg/kg
[5] = target: T1, human Nav1.2; conditions: cited from earlier work

SMILES: Clc1cccc(-c2nc(-c3ccccc3)c[nH]2)c1 [Compound 12]
- protection in the MES test in mice at 100 mg/kg (in words) [1]: Some protection

SMILES: COc1ccc(-c2nc(-c3ccccc3)c[nH]2)cc1 [Compound 13]
- action on hNaV1.2 current at 10 μM [2]: 30.1%

SMILES: O=[N+]([O-])c1ccc(-c2nc(-c3ccccc3)c[nH]2)cc1 [Compound 15]
- protection in the MES test in mice at 100 mg/kg (in words) [1]: Some protection

SMILES: O=[N+]([O-])c1cccc(-c2nc(-c3ccccc3)c[nH]2)c1 [Compound 16]
- MES protection, animals protected/animals tested at 0.5 h [1]: 2/3

SMILES: FC(F)(F)c1ccc(-c2nc(-c3ccccc3)c[nH]2)cc1 [Compound 17]
- MES protection, animals protected/animals tested at 0.25 h ([1]; 0.25 h, text says rats, Supplementary Data Table 1): 2/3
- dose up to which no toxicity was observed [3]: 500 mg/kg
- action on hNaV1.2 current at 10 μM [2]: 22.7%
- fold greater potency for hNav1.2 than phenytoin ([2]; ratio of IC50 values): 4 fold

SMILES: Clc1ccc(-c2c[nH]c(-c3ccccc3)n2)cc1 [Compound 19]
- MES protection, animals protected/animals tested at 0.5 h [1]: 3/3
- ability to prevent seizure spread in the MES test after oral administration (in words) [4]: not able to prevent seizure spread

SMILES: Clc1cccc(-c2c[nH]c(-c3ccccc3)n2)c1 [Compound 20]
- MES protection, animals protected/animals tested at 0.5 h [1]: 3/3
- dose up to which no toxicity was observed [3]: 500 mg/kg
- action on hNaV1.2 current at 10 μM [2]: 16.8%

SMILES: COc1ccc(-c2c[nH]c(-c3ccccc3)n2)cc1 [Compound 21]
- ability to prevent seizure spread in the MES test after oral administration (in words) [4]: not able to prevent seizure spread

SMILES: COc1cccc(-c2c[nH]c(-c3ccccc3)n2)c1 [Compound 22]
- ability to prevent seizure spread in the MES test after oral administration (in words) [4]: not able to prevent seizure spread

SMILES: O=[N+]([O-])c1ccc(-c2c[nH]c(-c3ccccc3)n2)cc1 [Compound 23]
- protection in the MES test in mice at 100 mg/kg (in words) [1]: Some protection

SMILES: O=[N+]([O-])c1cccc(-c2c[nH]c(-c3ccccc3)n2)c1 [Compound 24]
- MES protection, animals protected/animals tested at 0.5 h [1]: 2/3
- ability to prevent seizure spread in the MES test after oral administration (in words) [4]: not able to prevent seizure spread

SMILES: FC(F)(F)c1ccc(-c2c[nH]c(-c3ccccc3)n2)cc1 [Compound 25]
- protection in the MES test in mice at 100 mg/kg (in words) [1]: Some protection

SMILES: FC(F)(F)c1cccc(-c2c[nH]c(-c3ccccc3)n2)c1 [Compound 26]
- protection in the MES test in mice at 100 mg/kg (in words) [1]: Some protection

SMILES: FC(F)(F)c1cccc(-c2c[nH]c(-c3cccc(C(F)(F)F)c3)n2)c1 [Compound 29]
- protection in the MES test in mice at 100 mg/kg (in words) [1]: Some protection

SMILES: O=C1NC(=O)C(c2ccccc2)(c2ccccc2)N1 [Phenytoin]
- action on hNaV1.2 current at 10 μM [5]: 10.6%

Source: paper PMC2970651 (Bioorganic & medicinal chemistry, 2010)
